Measured values: patent US11208412B2 (DAEGU-GYEONGBUK MEDICAL INNOVATION FOUNDATION, priority 2017, dated 2021)

Columns and labels:
Experiment in all cases: Kinase selectivity, DiscoverX scanMAX Kinase assay panel (% control)
Format in all cases: binding
[1] = molecular target: T1, kinases of the scanMAX Kinase assay panel (Homo sapiens, UniProt O14976); details: GAK; 1 uM
T1 construct: purchased DiscoverX Co. (contract measurement) scanMAX Kinase assay panel
T1 sequence (O14976 1-1311): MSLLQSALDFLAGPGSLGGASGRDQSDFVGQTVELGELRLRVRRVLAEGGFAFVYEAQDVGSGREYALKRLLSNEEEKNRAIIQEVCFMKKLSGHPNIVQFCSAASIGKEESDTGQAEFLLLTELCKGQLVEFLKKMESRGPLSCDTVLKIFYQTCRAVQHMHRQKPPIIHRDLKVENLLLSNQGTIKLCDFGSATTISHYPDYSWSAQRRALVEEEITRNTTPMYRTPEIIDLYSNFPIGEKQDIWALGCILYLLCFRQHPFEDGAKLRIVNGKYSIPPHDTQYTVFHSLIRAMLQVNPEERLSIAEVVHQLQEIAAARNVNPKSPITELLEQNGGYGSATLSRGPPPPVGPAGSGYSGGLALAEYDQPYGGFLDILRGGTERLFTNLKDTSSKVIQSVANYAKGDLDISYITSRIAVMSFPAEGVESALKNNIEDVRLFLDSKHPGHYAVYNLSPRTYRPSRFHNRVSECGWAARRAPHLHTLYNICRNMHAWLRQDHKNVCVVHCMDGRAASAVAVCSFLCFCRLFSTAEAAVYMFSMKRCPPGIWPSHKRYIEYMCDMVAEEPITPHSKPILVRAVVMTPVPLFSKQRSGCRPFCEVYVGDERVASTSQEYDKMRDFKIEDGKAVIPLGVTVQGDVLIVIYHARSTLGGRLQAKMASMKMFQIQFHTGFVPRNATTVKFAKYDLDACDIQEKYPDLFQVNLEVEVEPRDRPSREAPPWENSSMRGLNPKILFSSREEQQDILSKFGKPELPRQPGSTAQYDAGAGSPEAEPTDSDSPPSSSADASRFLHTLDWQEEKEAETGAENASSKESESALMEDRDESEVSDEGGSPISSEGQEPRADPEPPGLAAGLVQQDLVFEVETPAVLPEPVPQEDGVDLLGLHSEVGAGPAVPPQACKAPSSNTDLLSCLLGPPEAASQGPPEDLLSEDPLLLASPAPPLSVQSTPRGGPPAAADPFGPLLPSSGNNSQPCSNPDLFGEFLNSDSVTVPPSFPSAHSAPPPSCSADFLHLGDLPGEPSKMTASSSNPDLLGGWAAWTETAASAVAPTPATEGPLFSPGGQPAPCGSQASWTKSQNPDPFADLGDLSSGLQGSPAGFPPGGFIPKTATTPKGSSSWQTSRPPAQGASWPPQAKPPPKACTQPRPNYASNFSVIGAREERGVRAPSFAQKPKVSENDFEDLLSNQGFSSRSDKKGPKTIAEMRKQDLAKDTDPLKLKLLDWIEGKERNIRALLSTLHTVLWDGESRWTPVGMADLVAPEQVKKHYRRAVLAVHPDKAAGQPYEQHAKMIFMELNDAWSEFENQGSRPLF
Outline: (§1)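 Read-out is % control, normalised so a positive-control compound sits at 0% and DMSO at 100%: (test − positive)/(negative − positive)×100. Each kinase received the compound at 1 uM in DMSO. A value below 35% counts as activity.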

[2] = molecular target: T2, kinases of the scanMAX Kinase assay panel (Homo sapiens, UniProt Q86Y07); details: kinase VRK2; 1 uM in DMSO
T2 construct: purchased DiscoverX Co. (contract measurement) scanMAX Kinase assay panel
T2 sequence (Q86Y07 whole entry): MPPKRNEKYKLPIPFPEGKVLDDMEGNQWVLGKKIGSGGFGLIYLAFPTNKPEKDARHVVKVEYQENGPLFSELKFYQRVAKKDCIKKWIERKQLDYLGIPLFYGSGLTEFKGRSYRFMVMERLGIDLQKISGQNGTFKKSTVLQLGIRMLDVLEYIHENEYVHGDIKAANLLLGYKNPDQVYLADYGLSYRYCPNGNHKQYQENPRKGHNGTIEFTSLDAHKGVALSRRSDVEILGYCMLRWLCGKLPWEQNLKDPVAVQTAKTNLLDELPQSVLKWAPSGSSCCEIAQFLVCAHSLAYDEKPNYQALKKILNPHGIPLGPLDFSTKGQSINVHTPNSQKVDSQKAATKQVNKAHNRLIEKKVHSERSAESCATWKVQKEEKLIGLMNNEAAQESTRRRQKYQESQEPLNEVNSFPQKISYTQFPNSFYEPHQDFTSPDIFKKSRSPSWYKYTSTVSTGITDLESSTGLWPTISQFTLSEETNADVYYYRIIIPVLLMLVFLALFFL
Outline: as §1

[3] = molecular target: T3, kinases of the scanMAX Kinase assay panel (Homo sapiens, UniProt P78356); details: PIP5K2B; 1 uM
T3 construct: purchased DiscoverX Co. (contract measurement) scanMAX Kinase assay panel
T3 sequence (P78356 1-416): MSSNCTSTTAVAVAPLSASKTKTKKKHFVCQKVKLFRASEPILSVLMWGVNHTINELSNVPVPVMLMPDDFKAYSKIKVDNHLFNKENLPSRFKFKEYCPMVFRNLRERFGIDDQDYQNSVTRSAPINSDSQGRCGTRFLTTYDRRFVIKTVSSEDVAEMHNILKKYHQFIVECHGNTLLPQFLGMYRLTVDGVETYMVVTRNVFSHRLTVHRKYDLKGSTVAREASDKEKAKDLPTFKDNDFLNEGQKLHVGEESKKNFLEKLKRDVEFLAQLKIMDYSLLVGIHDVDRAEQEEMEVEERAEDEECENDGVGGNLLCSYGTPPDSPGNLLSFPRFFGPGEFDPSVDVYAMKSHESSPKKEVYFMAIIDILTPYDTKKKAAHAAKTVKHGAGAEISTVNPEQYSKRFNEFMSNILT
Outline: as §1

| Compound | remaining binding at 1 µM [1] | remaining binding at 1 µM [2] | remaining binding at 1 µM [3] |
| --- | --- | --- | --- |
| CC1(Nc2nc(Nc3cnn([C@H]4CCN(C5COC5)C[C@@H]4F)c3Cl)nc3[nH]cc(C#N)c23)CC1 [Example 52, 2-((5-chloro-1-((3S,4S)-3-fluoro-1-(oxetane-3-yl)piperidine-4-yl)-1H-pyrazole-4-yl)amino)((1-methylcyclopropyl)amino)-7H-pyrrolo[2,3-d]pyrimidine-5-carbonitrile] | 5.8% | 100% | 0.45% |
| CNc1nc(Nc2ccc(C(=O)N3CCOCC3)cc2OC)nc2[nH]cc(C#N)c12 [Example 1, 2-((2-methoxy-4-(morpholine-4-carbonyl)phenyl)amino)-4-(methylamino)-7H-pyrrolo[2,3-d]pyrimidine-5-carbonitrile] | 11% | 71% | 100% |
| CCNc1nc(Nc2ccc(C(=O)N3CCC(N4CCOCC4)CC3)cc2OC)nc2[nH]cc(C(F)(F)F)c12 [Example 104, (4-((4-(ethylamino)-5-(trifluoromethyl)-7H-pyrrolo[2,3-d]pyrimidine-2-yl)amino)-3-methoxyphenyl)(4-morpholinopiperidine-1-yl)methanone] | 1% | 100% | 100% |
